In PubChem BioAssay (NCI) one finds TGI data, which are given here for 15 molecules.

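The compound was tested at five concentrations on cells cultured in 96-well plates, with a 48-hour exposure period. TGI: total growth inhibition.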 Where only a bound is given, the exact number is not on record here.

Among the test systems are A498 renal; HOP-92 NSCLC; MALME-3M melanoma; HCT-15 colon; TK-10 renal; SN12C renal; SNB-19 CNS; OVCAR-8 ovarian; RXF 393 renal.
Common to all, as to test: growth of human tumour cells (NCI), 48 h

On to `CCCOC(=O)C1CCC(=O)N1C(=O)C(Cl)Cl` (stereo not given), for which the TGI in the assay with A498 renal, in the assay with HOP-92 NSCLC, in the assay with MALME-3M melanoma, in the assay on HCT-15 colon, in the assay on TK-10 renal and with SN12C renal was more than 100 µM in each case. Moreover, the TGI in the assay with SNB-19 CNS and with OVCAR-8 ovarian was more than 100 µM each time.
On to `CN(C)CCCn1cnc2ncccc2c1=O`, for which the TGI in the assay with HOP-92 NSCLC, in the assay on MALME-3M melanoma, in the assay on RXF 393 renal, in the assay with TK-10 renal, in the assay on SN12C renal and in the assay with SNB-19 CNS was more than 100 µM throughout. Further, in the assay with OVCAR-8 ovarian, the TGI is more than 100 µM.
Regarding `CCOC(=O)C(C(=O)c1ccccc1-c1ccccc1C(=O)O)=P(c1ccccc1)(c1ccccc1)c1ccccc1`, the TGI is 88.8 µM in the assay with A498 renal; 66.9 µM in the assay with MALME-3M melanoma; 74.8 µM in the assay on HCT-15 colon; 73.1 µM in the assay on RXF 393 renal; more than 100 µM in the assay with TK-10 renal; more than 100 µM in the assay on SN12C renal. In addition, the TGI was 92 µM in the assay on SNB-19 CNS and more than 100 µM in the assay on OVCAR-8 ovarian.
For `O=C(c1ccccc1)c1nnn(Cc2cccc(Cl)c2)c1C(=O)c1ccccc1`, the TGI in the assay with HOP-92 NSCLC, with MALME-3M melanoma, in the assay with HCT-15 colon, in the assay on RXF 393 renal, with TK-10 renal and in the assay on SNB-19 CNS was more than 100 µM in each case. This molecule also gave a TGI in the assay on OVCAR-8 ovarian of more than 100 µM.
In the case of `COc1ccc(NC(=O)CC/C(CC(=O)c2ccco2)=N/Nc2ccc([N+](=O)[O-])cc2[N+](=O)[O-])cc1`, the TGI in the assay with A498 renal, in the assay on HOP-92 NSCLC, in the assay on MALME-3M melanoma, in the assay on HCT-15 colon, in the assay with RXF 393 renal and in the assay on TK-10 renal was more than 100 µM in each case. Also, the TGI in the assay with SN12C renal, in the assay on SNB-19 CNS and in the assay with OVCAR-8 ovarian was more than 100 µM in each case.
`COC1CCC(=C2C(=O)OC(C)(C)OC2=O)N1` (stereo not given): the TGI with MALME-3M melanoma, in the assay on HCT-15 colon, with RXF 393 renal, with TK-10 renal, with SN12C renal and in the assay on SNB-19 CNS was more than 100 µM each time. Moreover, in the assay with OVCAR-8 ovarian, the TGI was more than 100 µM.
Turning to `Cc1c(C(=O)/C=C/c2ccco2)[n+](=O)c2ccccc2n1[O-]`, the TGI in the assay on A498 renal, with HOP-92 NSCLC, in the assay with MALME-3M melanoma, with RXF 393 renal, in the assay with TK-10 renal and in the assay on SN12C renal was more than 100 µM each time. The TGI in the assay on SNB-19 CNS and in the assay on OVCAR-8 ovarian was more than 100 µM in each case.
Turning to `COC(=O)C1=Cc2cc3c(cc2[C@H](c2ccc4c(c2)OCO4)C1C(=O)OC)OCO3` (stereo not given in full), the TGI with A498 renal was 74 µM; with HOP-92 NSCLC, more than 100 µM; with MALME-3M melanoma, more than 100 µM; with HCT-15 colon, more than 100 µM; with RXF 393 renal, more than 100 µM; in the assay with TK-10 renal, more than 100 µM. Besides, the TGI with SN12C renal, with SNB-19 CNS and in the assay on OVCAR-8 ovarian was more than 100 µM in each case.
Consider `N#Cc1c([N+](=O)[O-])cc(C(F)(F)F)cc1[N+](=O)[O-]`, for which the TGI in the assay on A498 renal came to 32.9 µM; in the assay on HOP-92 NSCLC, 4.01 µM; with MALME-3M melanoma it was 25.5 µM; in the assay on HCT-15 colon it was 24.9 µM; with RXF 393 renal, 6.62 µM; in the assay with TK-10 renal it was 18.1 µM. Also, the figures for the TGI with SN12C renal, with SNB-19 CNS and with OVCAR-8 ovarian were 27.3 µM, 32.4 µM and 4.36 µM, respectively.
With `COC1OC(OC)C2C(c3c(C)cc(C)cc3C)=NOC12` (stereo not given), the TGI in the assay with HOP-92 NSCLC, in the assay with MALME-3M melanoma, in the assay with HCT-15 colon, in the assay on RXF 393 renal, in the assay with TK-10 renal and in the assay with SNB-19 CNS was more than 100 µM each time. Further, the TGI with OVCAR-8 ovarian was more than 100 µM.
Regarding `O=c1[nH]nc(-c2ccccc2)c(-c2ccccc2)c1-n1nc(-c2ccccc2)c2ccccc2c1=O`, the TGI in the assay on A498 renal, with HOP-92 NSCLC, with MALME-3M melanoma, in the assay with HCT-15 colon, in the assay with TK-10 renal and in the assay with SN12C renal was more than 100 µM in each case. In the assay on OVCAR-8 ovarian, this molecule registered a TGI of more than 100 µM.
With `CCC12C=CCN3CC[C@]4(C(=C(C(=O)OC)[C@@H]1Nc1ncnc5c1ncn5C1OC(COC(C)=O)C(OC(C)=O)C1OC(C)=O)Nc1ccccc14)C32` (stereo not given in full), the TGI with A498 renal amounted to 4.56 µM; with HOP-92 NSCLC, 9.02 µM; in the assay with MALME-3M melanoma it was 15.1 µM; in the assay on HCT-15 colon, 7.79 µM; in the assay on RXF 393 renal it was 3.92 µM; in the assay with TK-10 renal, 6.58 µM. The values for the TGI in the assay with SN12C renal, with SNB-19 CNS and in the assay on OVCAR-8 ovarian were 4.45 µM, 12.1 µM and 4.67 µM, respectively.
Take `CCc1ccc(Cc2ccc(CC)c(NC(=O)C(=O)Cc3nc4ccccc4nc3C)c2CC)c(CC)c1NC(=O)C(=O)Cc1nc2ccccc2nc1C`: the TGI in the assay with A498 renal is more than 100 µM; with HOP-92 NSCLC it was 43 µM; with MALME-3M melanoma, more than 100 µM; with HCT-15 colon, more than 100 µM; with RXF 393 renal, more than 100 µM; in the assay with TK-10 renal, more than 100 µM. The TGI in the assay with SNB-19 CNS and in the assay with OVCAR-8 ovarian was more than 100 µM throughout.
Take `[N-]=[N+]=Nc1ccc(S(=O)(=O)Oc2cc(OS(=O)(=O)c3ccc(N=[N+]=[N-])cc3)cc(OS(=O)(=O)c3ccc(N=[N+]=[N-])cc3)c2)cc1`: the TGI with A498 renal, in the assay with HOP-92 NSCLC, in the assay with MALME-3M melanoma, with HCT-15 colon, in the assay on RXF 393 renal and with TK-10 renal was more than 100 µM throughout. Further, the TGI in the assay with SN12C renal, in the assay on SNB-19 CNS and with OVCAR-8 ovarian was more than 10 µM throughout.
For the molecule `CC(C)c1ccc2c(c1)CCC1C(C)(C)[C@@H](O)CC[C@]21C` (stereo not given in full), the TGI in the assay on HOP-92 NSCLC was 52.8 µM; with MALME-3M melanoma, 30.8 µM; in the assay on HCT-15 colon, more than 100 µM; in the assay with RXF 393 renal it was 54.3 µM; in the assay with TK-10 renal, more than 100 µM; in the assay with SN12C renal it was 40.2 µM. Moreover, the TGI in the assay with SNB-19 CNS and in the assay with OVCAR-8 ovarian was more than 100 µM each time.
